System: HCT116 MTAP wild-type cells
Assay: Human colon cancer HCT116 cell proliferation inhibition test (CellTiter-Glo, 6 days), MTAP wild-type cells
Format: cell-based
Conditions: HCT-116, 144 h
Description: (§1) 1. HCT116 MTAP knockout and MTAP wild-type cells were plated in 96-well flat bottom plates, and cultured overnight with McCoy's 5A medium containing 10% fetal bovine serum+1% penicillin-streptomycin at 37° C. and 5% CO2.
(§2) 2. On the next day, the compound was dissolved with DMSO, diluted with DMSO and medium successively and transferred to the cell plate. The final concentration of the compound was 10 μM, the compound was diluted 4 times, with 9 concentration gradients, and DMSO control was added.
(§3) 3. Cells that have not been treated with the compound were removed. CellTiter-Glo Luminescent Cell Viability Assay (Promega) was used to detect cell viability, the operation was performed with reference to the package insert of the kit, and then the cell plate was placed on EnVision Multilabel Reader to detect the cold light signal.
(§4) 4. Meanwhile, the cell plate treated with the compound was cultured at 37° C. and 5% CO2 for 6 consecutive days.
(§5) 5. Then, CellTiter-Glo was also used to detect cell viability.
(§6) 6. Finally, the four-parameter dose-response curve module of GraphPad Prism v 9.2.0 software was used to plot the dose-response curve and calculate the IC50 for proliferation inhibition (unit: nM).

Compound	IC50
Cn1cc(N(C(=O)c2ccc3nc(N)c4ccncc4c3c2)[C@@H]2CCc3cc(C(F)(F)F)ccc32)cn1 [Example 226, (R)-5-amino-N-(1-methyl-1H-pyrazol-4-yl)-N-(5-(trifluoromethyl)-2,3-dihydro-1H-inden-1-yl)benzo[c][2,6]naphthyridin-9-carboxamide]	1.95 µM
Cn1ncc2c(N)nc3cc(F)c(C(=O)N(CC(F)(F)F)[C@H]4COc5cc(C(F)(F)F)ccc54)cc3c21 [Example 186, (R)-4-amino-7-fluoro-1-methyl-N-(2,2,2-trifluoroethyl)-N-(6-(trifluoromethyl)-2,3-dihydrobenzofuran-3-yl)-1H-pyrazolo[4,3-c]quinolin-8-carboxamide]	> 10 µM
Cn1ccc(N(C(=O)c2cc3c(cc2F)nc(N)c2cnn(C)c23)[C@@H]2CCc3cc(C(F)(F)F)ccc32)n1 [Example 197, (R)-4-amino-7-fluoro-1-methyl-N-(1-methyl-1H-pyrazol-3-yl)-N-(5-(trifluoromethyl)-2,3-dihydro-1H-inden-1-yl)-1H-pyrazolo[4,3-c]quinolin-8-carboxamide]	0.264 µM
C[C@H]1OCc2c1c(N)nc1cc(F)c(C(=O)N(c3cnn(C)c3)[C@@H]3COc4cc(C(F)(F)F)ccc43)cc21 [Example 202, (R)-4-amino-7-fluoro-3-methyl-N-(1-methyl-1H-pyrazol-4-yl)-N-((S)-6-(trifluoromethyl)-2,3-dihydrobenzofuran-3-yl)-1,3-dihydrofuro[3,4-c]quinolin-8-carboxamide]	0.036 µM
Cn1cc(N(C(=O)c2cc3c(cc2F)nc(N)c2cnn(C)c23)[C@@H]2COc3nc(C(F)(F)F)ccc32)cn1 [Example 2, (S)-4-amino-7-fluoro-1-methyl-N-(1-methyl-1H-pyrazol-4-yl)-N-(6-(trifluoromethyl)-2,3-dihydrofuro[2,3-b]pyridin-3-yl)-1H-pyrazolo[4,3-c]quinolin-8-carboxamide]	0.03 µM

System: HCT116 MTAP knockout cells
Assay: Human colon cancer HCT116 cell proliferation inhibition test (CellTiter-Glo, 6 days), MTAP knockout cells
Format: cell-based
Conditions: HCT-116, 144 h
Description: as §1, §2, §3, §4, §5, §6

Compound	IC50
Cn1cc(N(C(=O)c2ccc3nc(N)c4ccncc4c3c2)[C@@H]2CCc3cc(C(F)(F)F)ccc32)cn1 [Example 226, (R)-5-amino-N-(1-methyl-1H-pyrazol-4-yl)-N-(5-(trifluoromethyl)-2,3-dihydro-1H-inden-1-yl)benzo[c][2,6]naphthyridin-9-carboxamide]	0.05 µM
Cn1ncc2c(N)nc3ccc(C(=O)N(c4ncccn4)C4CCc5cc(C(F)(F)F)ccc54)cc3c21 (stereo not shown) [Example 214, 4-amino-1-methyl-N-(pyrimidin-2-yl)-N-(5-(trifluoromethyl)-2,3-dihydro-1H-inden-1-yl)-1H-pyrazolo[4,3-c]quinolin-8-carboxamide]	0.325 µM
Cn1ncc2c(N)nc3cc(F)c(C(=O)N(CC(F)(F)F)[C@H]4COc5cc(C(F)(F)F)ccc54)cc3c21 [Example 186, (R)-4-amino-7-fluoro-1-methyl-N-(2,2,2-trifluoroethyl)-N-(6-(trifluoromethyl)-2,3-dihydrobenzofuran-3-yl)-1H-pyrazolo[4,3-c]quinolin-8-carboxamide]	0.506 µM
Cn1ccc(N(C(=O)c2cc3c(cc2F)nc(N)c2cnn(C)c23)[C@@H]2CCc3cc(C(F)(F)F)ccc32)n1 [Example 197, (R)-4-amino-7-fluoro-1-methyl-N-(1-methyl-1H-pyrazol-3-yl)-N-(5-(trifluoromethyl)-2,3-dihydro-1H-inden-1-yl)-1H-pyrazolo[4,3-c]quinolin-8-carboxamide]	0.0009 µM
C[C@H]1OCc2c1c(N)nc1cc(F)c(C(=O)N(c3cnn(C)c3)[C@@H]3COc4cc(C(F)(F)F)ccc43)cc21 [Example 202, (R)-4-amino-7-fluoro-3-methyl-N-(1-methyl-1H-pyrazol-4-yl)-N-((S)-6-(trifluoromethyl)-2,3-dihydrobenzofuran-3-yl)-1,3-dihydrofuro[3,4-c]quinolin-8-carboxamide]	0.002 µM
Nc1nc2ccc(C(=O)N(CC3CC3)[C@@H]3CCc4nc(C(F)(F)F)ccc43)cc2c2cnccc12 [Example 199, (R)-5-amino-N-(cyclopropylmethyl)-N-(2-(trifluoromethyl)-6,7-dihydro-5H-cyclopenta[b]pyridin-5-yl)benzo[c][2,6]naphthyridin-9-carboxamide]	0.134 µM
Cn1cc(N(C(=O)c2cc3c(cc2F)nc(N)c2cnn(C)c23)[C@@H]2COc3nc(C(F)(F)F)ccc32)cn1 [Example 2, (S)-4-amino-7-fluoro-1-methyl-N-(1-methyl-1H-pyrazol-4-yl)-N-(6-(trifluoromethyl)-2,3-dihydrofuro[2,3-b]pyridin-3-yl)-1H-pyrazolo[4,3-c]quinolin-8-carboxamide]	0.001 µM
COC[C@@H](C)N(C(=O)c1ccc2nc(N)c3ccncc3c2c1)[C@@H]1CCc2cc(C(F)(F)F)ccc21 [Example 216, 5-amino-N-((R)-1-methoxypropan-2-yl)-N-((R)-5-(trifluoromethyl)-2,3-dihydro-1H-inden-1-yl)benzo[c][2,6]naphthyridin-9-carboxamide]	0.94 µM
Nc1nc2ccc(C(=O)N(CC3CC3)[C@H]3CCc4nc(C(F)(F)F)ccc43)cc2c2cnccc12 [Example 1, (S)-5-amino-N-(cyclopropylmethyl)-N-(2-(trifluoromethyl)-6,7-dihydro-5H-cyclopenta[b]pyridin-5-yl)benzo[c][2,6]naphthyridin-9-carboxamide]	0.792 µM
C[C@@H](c1ncccn1)N(C(=O)c1cc2c3c(c(N)nc2cc1F)COC3)[C@@H]1CCc2cc(C(F)(F)F)ccc21 [Example 224, 4-amino-7-fluoro-N-((S)-1-(pyrimidin-2-yl)ethyl)-N-((R)-5-(trifluoromethyl)-2,3-dihydro-1H-inden-1-yl)-1,3-dihydrofuro[3,4-c]quinolin-8-carboxamide]	0.64 µM
Nc1nc2ccc(C(=O)N(CC3CC3)C3CCc4nc(C(F)(F)F)ccc43)cc2c2cnccc12 (stereo not shown) [Example 110, 5-amino-N-(cyclopropylmethyl)-N-(2-(trifluoromethyl)-6,7-dihydro-5H-cyclopenta[b]pyridin-5-yl)benzo[c][2,6]naphthyridin-9-carboxamide]	0.116 µM
C[C@H](c1ncccn1)N(C(=O)c1ccc2nc(N)c3ccncc3c2c1)[C@@H]1CCc2cc(C(F)(F)F)ccc21 [Example 222, 5-amino-N-((R)-1-(pyrimidin-2-yl)ethyl)-N-((R)-5-(trifluoromethyl)-2,3-dihydro-1H-inden-1-yl)benzo[c][2,6]naphthyridin-9-carboxamide]	0.217 µM
COC[C@@H](C)N(C(=O)c1cc2c3c(c(N)nc2cc1F)COC3)[C@H]1CCc2cc(C(F)(F)F)ccc21 [Example 217, 4-amino-7-fluoro-N-((R)-1-methoxypropan-2-yl)-N-((S)-5-(trifluoromethyl)-2,3-dihydro-1H-inden-1-yl)-1,3-dihydrofuro[3,4-c]quinolin-8-carboxamide]	2.36 µM
C[C@H](c1ncccn1)N(C(=O)c1cc2c3c(c(N)nc2cc1F)COC3)[C@@H]1CCc2cc(C(F)(F)F)ccc21 [Example 223, 4-amino-7-fluoro-N-((R)-1-(pyrimidin-2-yl)ethyl)-N-((R)-5-(trifluoromethyl)-2,3-dihydro-1H-inden-1-yl)-1,3-dihydrofuro[3,4-c]quinolin-8-carboxamide]	0.118 µM
Nc1nc2ccc(C(=O)N(c3ncns3)[C@@H]3CCc4cc(C(F)(F)F)ccc43)cc2c2cnccc12 [Example 191, (R)-5-amino-N-(1,2,4-thiadiazol-5-yl)-N-(5-(trifluoromethyl)-2,3-dihydro-1H-inden-1-yl)benzo[c][2,6]naphthyridin-9-carboxamide]	2.9 µM
Cn1cc(N(C(=O)c2cc3c(cc2F)nc(N)c2cnn(C)c23)C2CCc3cc(C(F)(F)F)ccc32)cn1 (stereo not shown) [Example 8, 4-amino-7-fluoro-1-methyl-N-(1-methyl-1H-pyrazol-4-yl)-N-(5-(trifluoromethyl)-2,3-dihydro-1H-inden-1-yl)-1H-pyrazolo[4,3-c]quinolin-8-carboxamide]	0.004 µM
COC[C@@H](C)N(C(=O)c1ccc2nc(N)c3ccncc3c2c1)[C@H]1CCc2cc(C(F)(F)F)ccc21 [Example 215, 5-amino-N-((R)-1-methoxypropan-2-yl)-N-((S)-5-(trifluoromethyl)-2,3-dihydro-1H-inden-1-yl)benzo[c][2,6]naphthyridin-9-carboxamide]	6.93 µM
Cn1ncc2c(N)nc3cc(F)c(C(=O)N(c4cscn4)[C@@H]4CCc5cc(C(F)(F)F)ccc54)cc3c21 [Example 211, (R)-4-amino-7-fluoro-1-methyl-N-(thiazol-4-yl)-N-(5-(trifluoromethyl)-2,3-dihydro-1H-inden-1-yl)-1H-pyrazolo[4,3-c]quinolin-8-carboxamide]	0.004 µM
Cn1ncc2c(N)nc3cc(F)c(C(=O)N(Cc4cscn4)C4CCc5cc(C(F)(F)F)ccc54)cc3c21 (stereo not shown) [Example 95, 4-amino-7-fluoro-1-methyl-N-(thiazol-4-ylmethyl)-N-(5-(trifluoromethyl)-2,3-dihydro-1H-inden-1-yl)-1H-pyrazolo[4,3-c]quinolin-8-carboxamide]	0.052 µM
Nc1nc2ccc(C(=O)N(c3cscn3)[C@@H]3CCc4cc(C(F)(F)F)ccc43)cc2c2cnccc12 [Example 212, (R)-5-amino-N-(thiazol-4-yl)-N-(5-(trifluoromethyl)-2,3-dihydro-1H-inden-1-yl)benzo[c][2,6]naphthyridin-9-carboxamide]	0.016 µM
Cn1ncc2c(N)nc3cc(F)c(C(=O)N(c4cscn4)C4CCc5cc(C(F)(F)F)ccc54)cc3c21 (stereo not shown) [Example 152, 4-amino-7-fluoro-1-methyl-N-(thiazol-4-yl)-N-(5-(trifluoromethyl)-2,3-dihydro-1H-inden-1-yl)-1H-pyrazolo[4,3-c]quinolin-8-carboxamide]	0.004 µM
Nc1nc2ccc(C(=O)N(CC3CC3)C3COc4nc(C(F)(F)F)ccc43)cc2c2cnccc12 (stereo not shown) [Example 111, 5-amino-N-(cyclopropylmethyl)-N-(6-(trifluoromethyl)-2,3-dihydrofuro[2,3-b]pyridin-3-yl)benzo[c][2,6]naphthyridin-9-carboxamide]	0.115 µM
Cn1ncc2c(N)nc3cc(F)c(C(=O)N(Cc4ncccn4)C4CCc5cc(C(F)(F)F)ccc54)cc3c21 (stereo not shown) [Example 7, 4-amino-7-fluoro-1-methyl-N-(pyrimidin-2-ylmethyl)-N-(5-(trifluoromethyl)-2,3-dihydro-1H-inden-1-yl)-1H-pyrazol[4,3-c]quinolin-8-carboxamide]	0.057 µM
Cn1ncc2c(N)nc3cc(F)c(C(=O)N(CC(F)(F)F)C4COc5cc(C(F)(F)F)ccc54)cc3c21 (stereo not shown) [Example 157, 4-amino-7-fluoro-1-methyl-N-(2,2,2-trifluoroethyl)-N-(6-(trifluoromethyl)-2,3-dihydrobenzofuran-3-yl)-1H-pyrazolo[4,3-c]quinolin-8-carboxamide]	0.139 µM
Nc1nc2ccc(C(=O)N(CC3CC3)[C@H]3COc4nc(C(F)(F)F)ccc43)cc2c2cnccc12 [Example 196, (R)-5-amino-N-(cyclopropylmethyl)-N-(6-(trifluoromethyl)-2,3-dihydrofuro[2,3-b]pyridin-3-yl)benzo[c][2,6]naphthyridin-9-carboxamide]	1.53 µM
COC[C@@H](C)N(C(=O)c1cc2c3c(c(N)nc2cc1F)COC3)[C@@H]1CCc2cc(C(F)(F)F)ccc21 [Example 218, 4-amino-7-fluoro-N-((R)-1-methoxypropan-2-yl)-N-((R)-5-(trifluoromethyl)-2,3-dihydro-1H-inden-1-yl)-1,3-dihydrofuro[3,4-c]quinolin-8-carboxamide]	0.485 µM
